Tests used:
Type in all cases: functional, cell-based
[1] = target: T1, Solute carrier organic anion transporter family member 1B1 (Homo sapiens, UniProt Q9Y6L6); assay: TP_TRANSPORTER: inhibition of E217betaG uptake (E217betaG: 0.5 uM, Indinavir: 10 uM) in OATP-C-expressing HeLa cells
T1 sequence (Q9Y6L6 whole entry): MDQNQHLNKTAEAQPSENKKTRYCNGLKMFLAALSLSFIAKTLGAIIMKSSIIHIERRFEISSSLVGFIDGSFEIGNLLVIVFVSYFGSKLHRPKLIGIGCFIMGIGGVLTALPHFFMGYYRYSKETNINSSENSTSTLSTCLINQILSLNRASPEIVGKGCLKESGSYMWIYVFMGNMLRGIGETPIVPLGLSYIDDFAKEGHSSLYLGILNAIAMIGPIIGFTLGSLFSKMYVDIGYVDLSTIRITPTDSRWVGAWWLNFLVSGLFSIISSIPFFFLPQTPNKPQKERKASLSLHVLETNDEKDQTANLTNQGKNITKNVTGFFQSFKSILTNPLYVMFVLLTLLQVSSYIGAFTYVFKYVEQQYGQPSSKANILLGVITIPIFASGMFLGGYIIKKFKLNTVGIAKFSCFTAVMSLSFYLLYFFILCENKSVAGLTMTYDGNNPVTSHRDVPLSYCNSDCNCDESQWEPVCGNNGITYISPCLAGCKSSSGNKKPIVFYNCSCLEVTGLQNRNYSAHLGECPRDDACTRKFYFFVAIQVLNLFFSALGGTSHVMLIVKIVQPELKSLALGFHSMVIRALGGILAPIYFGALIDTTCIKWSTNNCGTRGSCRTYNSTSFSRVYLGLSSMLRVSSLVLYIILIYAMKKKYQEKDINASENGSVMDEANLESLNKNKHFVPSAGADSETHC

[2] = target: T1, Solute carrier organic anion transporter family member 1B1; assay: TP_TRANSPORTER: inhibition of E217betaG uptake (E217betaG: 0.5 uM, Rifampicin: 10 uM) in OATP-C-expressing HeLa cells
[3] = target: T1, Solute carrier organic anion transporter family member 1B1; assay: TP_TRANSPORTER: inhibition of E217betaG uptake (E217betaG: 0.5 uM, Saquinavir: 100 uM) in OATP-C-expressing HeLa cells
[4] = target: T1, Solute carrier organic anion transporter family member 1B1; assay: TP_TRANSPORTER: inhibition of E217betaG uptake (E217betaG: 0.5 uM, BSP: 10 uM) in OATP-C-expressing HeLa cells
[5] = target: T1, Solute carrier organic anion transporter family member 1B1; assay: TP_TRANSPORTER: inhibition of E217betaG uptake (E217betaG: 0.5 uM, Nelfinavir: 10 uM) in OATP-C-expressing HeLa cells
[6] = target: T1, Solute carrier organic anion transporter family member 1B1; assay: TP_TRANSPORTER: inhibition of E217betaG uptake (E217betaG: 0.5 uM, Hyperforin: 10 uM) in OATP-C-expressing HeLa cells
[7] = substrate: CO[C@H]1/C=C/O[C@@]2(C)Oc3c(C)c(O)c4c(O)c(c(/C=N/N5CCN(C)CC5)c(O)c4c3C2=O)NC(=O)/C(C)=C\C=C\[C@H](C)[C@H](O)[C@@H](C)[C@@H](O)[C@@H](C)[C@H](OC(C)=O)[C@@H]1C; assay: TP_TRANSPORTER: uptake in OATP-C-expressing HeLa cells

`CC(C)(C)NC(=O)[C@@H]1CN(Cc2cccnc2)CCN1C[C@@H](O)C[C@@H](Cc1ccccc1)C(=O)N[C@H]1c2ccccc2C[C@H]1O.O` was tested, and the Activity [1] was “inhibitor [(at a rough estimate) 35 % of control]”.

With `CO[C@H]1/C=C/O[C@@]2(C)Oc3c(C)c(O)c4c(O)c(c(/C=N/N5CCN(C)CC5)c(O)c4c3C2=O)NC(=O)/C(C)=C\C=C\[C@H](C)[C@H](O)[C@@H](C)[C@@H](O)[C@@H](C)[C@H](OC(C)=O)[C@@H]1C` [RIFAMPIN] the Activity [2] was “inhibitor [(at a rough estimate) 10 % of control]”.

`CC(C)(C)NC(=O)[C@@H]1C[C@@H]2CCCC[C@@H]2CN1C[C@@H](O)[C@H](Cc1ccccc1)NC(=O)[C@H](CC(N)=O)NC(=O)c1ccc2ccccc2n1` was tested, and the Activity [3] was “inhibitor [(at a rough estimate) 10 % of control]”.

In the case of `O=C1OC(c2ccc(O)c(S(=O)(=O)[O-])c2)(c2ccc(O)c(S(=O)(=O)[O-])c2)c2c(Br)c(Br)c(Br)c(Br)c21.[Na+].[Na+]` [SULFOBROMOPHTHALEIN SODIUM], the Activity [4] is reported as “inhibitor [(at a rough estimate) <5 % of control]”.

With `Cc1c(O)cccc1C(=O)N[C@@H](CSc1ccccc1)[C@H](O)CN1C[C@H]2CCCC[C@H]2C[C@H]1C(=O)NC(C)(C)C` the Activity [5] was “inhibitor [(at a rough estimate) 15 % of control]”.

`CC(C)=CCC[C@]1(C)[C@@H](CC=C(C)C)C[C@]2(CC=C(C)C)C(=O)C(CC=C(C)C)=C(O)[C@@]1(C(=O)C(C)C)C2=O` was tested, and the Activity [6] was “inhibitor [(at a rough estimate) 10 % of control]”.

B1: Solute carrier organic anion transporter family member 1B1 (Homo sapiens) (protein)
chain: MDQNQHLNKTAEAQPSENKKTRYCNGLKMFLAALSLSFIAKTLGAIIMKSSIIHIERRFEISSSLVGFIDGSFEIGNLLVIVFVSYFGSKLHRPKLIGIGCFIMGIGGVLTALPHFFMGYYRYSKETNINSSENSTSTLSTCLINQILSLNRASPEIVGKGCLKESGSYMWIYVFMGNMLRGIGETPIVPLGLSYIDDFAKEGHSSLYLGILNAIAMIGPIIGFTLGSLFSKMYVDIGYVDLSTIRITPTDSRWVGAWWLNFLVSGLFSIISSIPFFFLPQTPNKPQKERKASLSLHVLETNDEKDQTANLTNQGKNITKNVTGFFQSFKSILTNPLYVMFVLLTLLQVSSYIGAFTYVFKYVEQQYGQPSSKANILLGVITIPIFASGMFLGGYIIKKFKLNTVGIAKFSCFTAVMSLSFYLLYFFILCENKSVAGLTMTYDGNNPVTSHRDVPLSYCNSDCNCDESQWEPVCGNNGITYISPCLAGCKSSSGNKKPIVFYNCSCLEVTGLQNRNYSAHLGECPRDDACTRKFYFFVAIQVLNLFFSALGGTSHVMLIVKIVQPELKSLALGFHSMVIRALGGILAPIYFGALIDTTCIKWSTNNCGTRGSCRTYNSTSFSRVYLGLSSMLRVSSLVLYIILIYAMKKKYQEKDINASENGSVMDEANLESLNKNKHFVPSAGADSETHC
Molecule B1 has a Km [7] of 1.5 µM.

Source: ChEMBL document CHEMBL2074575, “Human organic anion transporting polypeptide-C (SLC21A6) is a major determinant of rifampin-mediated pregnane X receptor activation” (J Pharmacol Exp Ther, 2003)
